Data as given in ChEMBL document CHEMBL1201862, “PubChem BioAssay data set” (2004).
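Cultured in 96-well plates, cells were exposed to test compound for 48 hours across five concentrations. GI50 = concentration required for 50% inhibition of growth.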 Active and inactive are the calls of the source. Cut-off read from the data, not from the text of the source: active = GI50 up to about 1.1 µM and inactive = higher.

Legend:
Test in all cases: inhibition of tumour cell growth, NCI panel, 48 h
[1] = tested on: NCI-H522
[2] = tested on: MDA-N
[3] = tested on: A549
[4] = tested on: MDA-MB-435
[5] = tested on: T47D
[6] = tested on: K562
[7] = tested on: A498
[8] = tested on: DU-145
[9] = tested on: SN12C
[10] = tested on: NCI-H226
[11] = tested on: Hs-578T
[12] = tested on: SK-MEL-5
[13] = tested on: U-251
[14] = tested on: HL-60
[15] = tested on: Malme-3M
[16] = tested on: NCI-H23
[17] = tested on: KM12
[18] = tested on: TK-10
[19] = tested on: OVCAR-3

Measured: GI50

Cc1cc2c(O)c(c1)CN(Cc1ccccc1)Cc1cc(C)cc(c1O)CN(Cc1ccccc1)Cc1cc(C)cc(c1O)CN(Cc1ccccc1)C2
inactive: [1] > 100 µM | [2] > 100 µM | [3] > 100 µM | [4] > 100 µM | [5] > 100 µM | [6] > 100 µM | [7] > 100 µM | [8] > 100 µM | [9] > 100 µM | [10] > 100 µM | [11] > 100 µM | [12] > 100 µM | [13] > 100 µM | [14] > 100 µM | [15] > 100 µM | [16] > 100 µM | [17] > 100 µM | [18] > 100 µM | [19] > 100 µM

Cn1nc(S(N)(=O)=O)s/c1=N/C(N)=S
inactive: [1] > 100 µM | [2] > 100 µM | [3] > 100 µM | [4] > 100 µM | [5] > 100 µM | [6] > 100 µM | [7] > 100 µM | [8] > 100 µM | [9] > 100 µM | [10] > 100 µM | [11] > 100 µM | [12] > 100 µM | [13] > 100 µM | [14] > 100 µM | [15] > 100 µM | [16] > 100 µM | [17] > 100 µM | [18] > 100 µM | [19] > 100 µM

COc1ccc(SCc2cc(OCc3ccccc3)c(OCc3ccccc3)c(OCc3ccccc3)c2)cc1
inactive: [1] 1.83 µM | [2] 1.83 µM | [3] 2.16 µM | [4] 1.76 µM | [5] 2.69 µM | [6] 1.21 µM | [7] 2.06 µM | [8] 1.75 µM | [9] 1.79 µM | [10] 1.9 µM | [11] 2.12 µM | [12] 1.84 µM | [13] 1.77 µM | [14] 1.87 µM | [15] 1.83 µM | [16] 1.75 µM | [17] 1.64 µM | [18] 1.89 µM | [19] 1.65 µM

NCCC1([N+](=O)[O-])CCNCC1
inactive: [1] > 86.5 µM | [2] > 100 µM | [3] > 100 µM | [4] > 100 µM | [5] > 100 µM | [6] > 100 µM | [7] > 100 µM | [8] > 100 µM | [9] > 100 µM | [10] > 100 µM | [11] > 100 µM | [12] > 100 µM | [13] > 100 µM | [14] > 100 µM | [15] > 100 µM | [16] > 100 µM | [17] > 100 µM | [18] > 100 µM | [19] > 100 µM

COc1ccc(CC(O)CN2CCOCC2)cc1 (stereo not given)
inactive: [1] > 100 µM | [2] > 100 µM | [3] > 100 µM | [4] > 100 µM | [5] > 100 µM | [6] > 100 µM | [7] > 100 µM | [8] > 100 µM | [9] > 100 µM | [10] > 100 µM | [11] > 100 µM | [12] > 100 µM | [13] > 100 µM | [14] > 100 µM | [15] > 100 µM | [16] > 100 µM | [17] > 100 µM | [18] > 100 µM | [19] > 100 µM
